Source: ChEMBL document CHEMBL4823315 (Bioorg Med Chem Lett, 2021)

Experiments:
[1] = Inhibition of p70S6K (unknown origin); design: species or system Homo sapiens
[2] = Inhibition of Akt/p70S6K in human MDA-MB-436 cells assessed as inhibition of S6 phosphorylation; type: cell-based
[3] = target: Serine/threonine-protein kinase AKT (Homo sapiens, UniProt P31751+Q9Y243+P31749); test: Inhibition of Akt (unknown origin); type: protein assay
[4] = AUC in CD-1 mouse at 0.2 mg/kg, iv; type: ADME, organism-based; design: dose 0.2 mg/kg; details: in vivo
[5] = AUC in CD-1 mouse at 0.5 mg/kg, po; type: ADME, organism-based; design: dose 0.5 mg/kg; details: in vivo
[6] = target: Voltage-gated inwardly rectifying potassium channel KCNH2 (Homo sapiens, UniProt Q12809); test: Inhibition of human ERG by patch clamp assay
Sequence of Voltage-gated inwardly rectifying potassium channel KCNH2 (Q12809 whole entry): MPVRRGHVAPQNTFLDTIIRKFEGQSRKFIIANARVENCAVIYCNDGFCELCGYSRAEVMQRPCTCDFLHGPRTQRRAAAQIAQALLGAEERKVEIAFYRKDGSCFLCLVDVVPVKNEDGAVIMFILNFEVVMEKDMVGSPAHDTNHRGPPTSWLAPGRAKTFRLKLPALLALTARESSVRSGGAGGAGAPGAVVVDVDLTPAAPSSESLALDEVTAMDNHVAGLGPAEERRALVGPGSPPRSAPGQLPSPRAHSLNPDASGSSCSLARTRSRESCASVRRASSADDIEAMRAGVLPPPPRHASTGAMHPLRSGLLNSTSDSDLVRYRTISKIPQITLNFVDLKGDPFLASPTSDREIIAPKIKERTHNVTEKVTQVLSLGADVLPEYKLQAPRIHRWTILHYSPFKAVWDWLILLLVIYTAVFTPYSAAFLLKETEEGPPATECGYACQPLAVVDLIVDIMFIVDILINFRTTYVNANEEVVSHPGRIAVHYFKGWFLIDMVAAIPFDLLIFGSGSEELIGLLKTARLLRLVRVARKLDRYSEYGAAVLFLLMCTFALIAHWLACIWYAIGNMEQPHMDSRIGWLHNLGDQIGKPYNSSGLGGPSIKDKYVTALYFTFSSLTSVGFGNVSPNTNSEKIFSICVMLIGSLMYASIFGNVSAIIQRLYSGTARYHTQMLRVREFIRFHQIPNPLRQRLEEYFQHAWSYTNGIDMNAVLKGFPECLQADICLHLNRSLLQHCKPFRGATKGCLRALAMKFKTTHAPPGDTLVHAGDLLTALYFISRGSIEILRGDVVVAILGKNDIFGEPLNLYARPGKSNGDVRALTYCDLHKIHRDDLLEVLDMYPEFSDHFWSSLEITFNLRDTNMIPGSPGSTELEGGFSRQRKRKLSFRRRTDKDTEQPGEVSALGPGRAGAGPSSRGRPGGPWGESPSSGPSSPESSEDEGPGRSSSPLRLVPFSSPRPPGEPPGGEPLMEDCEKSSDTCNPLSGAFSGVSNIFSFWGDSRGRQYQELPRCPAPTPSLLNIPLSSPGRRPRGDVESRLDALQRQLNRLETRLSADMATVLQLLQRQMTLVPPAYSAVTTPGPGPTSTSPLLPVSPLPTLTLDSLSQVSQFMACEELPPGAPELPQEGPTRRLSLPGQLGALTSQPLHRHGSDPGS

[7] = Thermodynamic solubility of the compound at pH 1.2; type: physicochemical; details: buffer, read-out: Therm_solubility
[8] = Volume of distribution in CD-1 mouse at 0.5 mg/kg, po or 0.2 […], iv; type: ADME, organism-based; details: in vivo
[9] = Protein binding in human plasma assessed as unbound fraction; type: ADME, cell-free
[10] = Protein binding in mouse plasma assessed as unbound fraction; type: ADME, cell-free
[11] = Efflux ratio of apparent permeability in human Caco-2 cells; type: ADME, cell-based
Cytochrome P450 2C9 = Cytochrome P450 2C9 (Homo sapiens, UniProt P11712); test: Inhibition of CYP2C9 (unknown origin); type: ADME
Sequence of Cytochrome P450 2C9 (P11712 whole entry): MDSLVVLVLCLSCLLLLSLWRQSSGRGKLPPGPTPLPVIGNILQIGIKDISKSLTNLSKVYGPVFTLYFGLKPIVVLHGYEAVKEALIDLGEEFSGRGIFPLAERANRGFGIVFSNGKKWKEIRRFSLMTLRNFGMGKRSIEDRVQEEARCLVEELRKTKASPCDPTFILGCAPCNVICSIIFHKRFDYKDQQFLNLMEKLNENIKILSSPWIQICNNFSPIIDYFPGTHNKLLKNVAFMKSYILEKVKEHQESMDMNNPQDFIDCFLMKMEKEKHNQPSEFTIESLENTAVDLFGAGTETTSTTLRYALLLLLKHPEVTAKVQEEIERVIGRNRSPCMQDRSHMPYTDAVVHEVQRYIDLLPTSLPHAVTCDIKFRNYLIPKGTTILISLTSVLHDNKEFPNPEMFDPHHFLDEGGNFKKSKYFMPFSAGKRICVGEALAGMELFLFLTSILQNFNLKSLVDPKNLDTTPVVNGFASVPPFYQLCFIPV

Cytochrome P450 2C19 = Cytochrome P450 2C19 (Homo sapiens, UniProt P33261); test: Inhibition of CYP2C19 (unknown origin); type: ADME
Sequence of Cytochrome P450 2C19 (P33261 whole entry): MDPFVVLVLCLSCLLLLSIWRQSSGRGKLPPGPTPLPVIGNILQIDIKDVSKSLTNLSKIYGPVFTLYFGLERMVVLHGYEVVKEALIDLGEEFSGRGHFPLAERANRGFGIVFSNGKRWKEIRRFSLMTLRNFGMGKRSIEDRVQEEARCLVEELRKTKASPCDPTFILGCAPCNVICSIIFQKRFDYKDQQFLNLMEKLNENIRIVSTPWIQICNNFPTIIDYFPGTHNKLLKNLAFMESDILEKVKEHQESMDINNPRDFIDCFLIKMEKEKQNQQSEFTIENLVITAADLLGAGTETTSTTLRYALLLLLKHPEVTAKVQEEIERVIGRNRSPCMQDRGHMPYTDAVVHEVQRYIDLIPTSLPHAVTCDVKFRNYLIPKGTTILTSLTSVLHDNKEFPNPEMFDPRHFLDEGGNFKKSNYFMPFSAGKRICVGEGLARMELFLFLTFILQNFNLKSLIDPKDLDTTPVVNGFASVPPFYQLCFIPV

[12] = Half life in CD-1 mouse at 0.5 mg/kg, po or 0.2 mg/kg, iv; type: ADME, organism-based; details: in vivo
[13] = Intrinsic clearance in human liver microsomes; type: ADME, Microsome; details: read-out: CLH
[14] = Cmax in CD-1 mouse at 0.5 mg/kg, po; type: ADME, organism-based; design: route oral, dose 0.5 mg/kg; details: in vivo
Cytochrome P450 3A4 = Cytochrome P450 3A4 (Homo sapiens, UniProt P08684); test: Inhibition of CYP3A4 (unknown origin); type: ADME
Sequence of Cytochrome P450 3A4 (P08684 whole entry): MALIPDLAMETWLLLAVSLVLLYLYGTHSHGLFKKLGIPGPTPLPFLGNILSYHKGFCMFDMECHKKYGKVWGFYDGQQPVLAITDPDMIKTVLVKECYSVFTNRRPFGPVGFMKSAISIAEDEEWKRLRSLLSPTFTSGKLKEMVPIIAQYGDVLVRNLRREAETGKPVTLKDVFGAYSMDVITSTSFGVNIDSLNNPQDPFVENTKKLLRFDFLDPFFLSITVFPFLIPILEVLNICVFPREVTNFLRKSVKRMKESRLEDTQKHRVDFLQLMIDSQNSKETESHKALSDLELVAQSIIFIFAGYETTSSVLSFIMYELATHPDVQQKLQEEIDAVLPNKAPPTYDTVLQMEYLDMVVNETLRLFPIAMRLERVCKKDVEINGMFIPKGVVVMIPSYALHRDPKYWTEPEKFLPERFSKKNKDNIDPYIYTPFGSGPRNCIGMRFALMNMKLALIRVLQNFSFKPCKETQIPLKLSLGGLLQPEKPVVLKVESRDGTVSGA

Cytochrome P450 2B6 = target: T1, Cytochrome P450 2B6 (Homo sapiens, UniProt P20813); test: Inhibition of CYP2B6 (unknown origin); type: ADME
T1 sequence (P20813 whole entry): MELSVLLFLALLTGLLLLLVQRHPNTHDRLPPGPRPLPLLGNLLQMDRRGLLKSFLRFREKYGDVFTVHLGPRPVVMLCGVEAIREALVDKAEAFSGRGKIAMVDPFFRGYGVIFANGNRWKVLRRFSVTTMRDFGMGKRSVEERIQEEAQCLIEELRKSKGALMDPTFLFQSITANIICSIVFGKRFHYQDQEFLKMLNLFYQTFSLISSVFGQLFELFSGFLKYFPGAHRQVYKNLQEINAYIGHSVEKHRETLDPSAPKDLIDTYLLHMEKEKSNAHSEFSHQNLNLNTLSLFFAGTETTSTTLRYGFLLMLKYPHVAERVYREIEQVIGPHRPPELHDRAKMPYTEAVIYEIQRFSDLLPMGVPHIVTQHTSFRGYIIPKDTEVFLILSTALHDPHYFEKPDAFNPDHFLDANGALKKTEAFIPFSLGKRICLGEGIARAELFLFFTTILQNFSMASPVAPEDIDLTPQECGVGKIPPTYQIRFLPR

[15] = Intrinsic clearance in mouse liver microsomes; type: ADME, Microsome; details: read-out: CLH
Cytochrome P450 2C8 = target: T2, Cytochrome P450 2C8 (Homo sapiens, UniProt P10632); test: Inhibition of CYP2C8 (unknown origin); type: ADME
T2 sequence (P10632 whole entry): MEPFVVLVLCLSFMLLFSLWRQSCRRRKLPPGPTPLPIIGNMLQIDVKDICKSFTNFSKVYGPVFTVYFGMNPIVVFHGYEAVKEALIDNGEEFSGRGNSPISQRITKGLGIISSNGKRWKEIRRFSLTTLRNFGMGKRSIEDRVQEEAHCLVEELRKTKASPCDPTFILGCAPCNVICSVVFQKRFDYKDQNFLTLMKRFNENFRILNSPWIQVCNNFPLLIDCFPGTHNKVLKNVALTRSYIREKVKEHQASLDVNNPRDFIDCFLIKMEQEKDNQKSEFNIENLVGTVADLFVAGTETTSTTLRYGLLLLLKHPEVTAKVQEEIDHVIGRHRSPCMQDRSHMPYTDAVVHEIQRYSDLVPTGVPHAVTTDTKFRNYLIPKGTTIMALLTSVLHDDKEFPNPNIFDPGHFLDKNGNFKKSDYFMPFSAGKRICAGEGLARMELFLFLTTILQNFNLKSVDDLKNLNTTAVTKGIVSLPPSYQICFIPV

[16] = Thermodynamic solubility of the compound at pH 7.4; type: physicochemical; details: buffer, read-out: Therm_solubility
Cytochrome P450 1A2 = target: T3, Cytochrome P450 1A2 (Homo sapiens, UniProt P05177); test: Inhibition of CYP1A2 (unknown origin); type: ADME
T3 sequence (P05177 whole entry): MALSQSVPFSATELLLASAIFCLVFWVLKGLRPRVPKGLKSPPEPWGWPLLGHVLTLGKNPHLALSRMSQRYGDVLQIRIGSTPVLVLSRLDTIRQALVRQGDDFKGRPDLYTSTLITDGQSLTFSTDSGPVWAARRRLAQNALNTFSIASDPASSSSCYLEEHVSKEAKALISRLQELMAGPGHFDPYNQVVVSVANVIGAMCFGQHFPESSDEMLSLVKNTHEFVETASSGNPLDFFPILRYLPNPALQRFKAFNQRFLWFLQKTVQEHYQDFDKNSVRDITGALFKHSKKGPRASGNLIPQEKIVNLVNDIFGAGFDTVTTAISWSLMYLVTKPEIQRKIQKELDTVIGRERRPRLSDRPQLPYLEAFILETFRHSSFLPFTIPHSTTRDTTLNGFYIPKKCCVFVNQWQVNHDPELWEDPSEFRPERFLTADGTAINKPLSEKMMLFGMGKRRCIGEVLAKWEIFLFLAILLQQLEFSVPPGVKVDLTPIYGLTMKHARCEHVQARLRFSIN

[17] = Clearance in CD-1 mouse at 0.5 mg/kg, po or 0.2 mg/kg, iv; type: ADME, organism-based; details: in vivo
[18] = Cmax in CD-1 mouse at 0.2 mg/kg, iv; type: ADME, organism-based; design: route intravenous, dose 0.2 mg/kg; details: in vivo
[19] = Apparent permeability across apical to basal side in human Caco-2 cells; type: ADME, cell-based
[20] = Oral bioavailability in CD-1 mouse at 0.5 mg/kg; type: ADME, organism-based; details: in vivo
Cytochrome P450 2D6 = Cytochrome P450 2D6 (Homo sapiens, UniProt P10635); test: Inhibition of CYP2D6 (unknown origin); type: ADME
Sequence of Cytochrome P450 2D6 (P10635 whole entry): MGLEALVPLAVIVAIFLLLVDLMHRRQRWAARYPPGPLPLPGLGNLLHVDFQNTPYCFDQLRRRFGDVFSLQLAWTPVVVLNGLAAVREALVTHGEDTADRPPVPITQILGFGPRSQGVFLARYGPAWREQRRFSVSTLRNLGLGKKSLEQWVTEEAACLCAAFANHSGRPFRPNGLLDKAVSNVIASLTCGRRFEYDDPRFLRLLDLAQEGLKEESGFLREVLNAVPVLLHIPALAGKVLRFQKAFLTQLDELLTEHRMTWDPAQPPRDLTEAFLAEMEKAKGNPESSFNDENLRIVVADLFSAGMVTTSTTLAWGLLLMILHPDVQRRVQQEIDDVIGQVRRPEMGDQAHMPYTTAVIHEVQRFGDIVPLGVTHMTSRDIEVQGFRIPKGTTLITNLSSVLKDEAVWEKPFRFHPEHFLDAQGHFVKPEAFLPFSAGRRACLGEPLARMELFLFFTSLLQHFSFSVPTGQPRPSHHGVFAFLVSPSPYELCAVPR

hERG (KCNH2) = hERG (KCNH2) (Homo sapiens, UniProt Q12809); test: Inhibition of human ERG at 10 uM by patch clamp assay
Sequence of hERG (KCNH2) (Q12809 whole entry): as the sequence (Q12809 whole entry) above

N#Cc1c(N)ncnc1N1CCC(c2nc(-c3ccc(F)c(C(F)(F)F)c3)cn2CCN2CCC2)CC1
IC50 [1]: 0.8 nM
IC50 [2]: 52000 nM
IC50 [3]: 2.2 nM

Cn1cc(-c2ccc(F)c(C(F)(F)F)c2)nc1C1CCN(c2ncnc(N)c2-c2ccc(F)cc2)CC1
AUC [4]: 1350 ng·h/mL
AUC [5]: 557 ng·h/mL
IC50 [6]: 1800 nM
solubility thermodynamic [7]: < 1 µg/mL
Vd [8]: 2.16 L/kg
fraction unbound [9]: 0.0008
fraction unbound [10]: 0.0003
efflux ratio [11]: 1.3
IC50 [1]: 4 nM
IC50 (Cytochrome P450 2C9): > 20000 nM
IC50 (Cytochrome P450 2C19): > 20000 nM
half-life [12]: 4.68 h
microsomal CLint [13]: 23 µL/min/mg
Cmax [14]: 72.1 ng/mL
IC50 [2]: 40 nM
IC50 (Cytochrome P450 3A4): > 20000 nM
IC50 [3]: 2200 nM
IC50 (Cytochrome P450 2B6): 6500 nM
microsomal CLint [15]: 48 µL/min/mg
IC50 (Cytochrome P450 2C8): > 20000 nM
solubility thermodynamic [16]: < 1 µg/mL
IC50 (Cytochrome P450 1A2): > 20000 nM
CL [17]: 12.3 mL/min/kg
Cmax [18]: 597 ng/mL
Papp A→B [19]: 1.9 ×10⁻⁶ cm/s
F [20]: 41%
IC50 (Cytochrome P450 2D6): > 20000 nM

Cn1cc(-c2ccc(F)c(C(F)(F)F)c2)nc1C1CCN(c2cc(N)ncn2)CC1
IC50 [1]: 102 nM
IC50 [2]: 22000 nM
IC50 [3]: > 1000 nM

Cn1cc(-c2ccc(F)c(C(F)(F)F)c2)nc1C1CCN(c2ncnc(N)c2-c2ccncc2)CC1
IC50 [1]: 2 nM
IC50 [2]: 400 nM
IC50 [3]: 930 nM

Nc1ncnc(N2CCC(c3nc(-c4ccc(F)c(C(F)(F)F)c4)cn3CCN3CCC3)CC2)c1C1CCC1
IC50 [6]: 1300 nM
IC50 [1]: 6 nM
IC50 [3]: 7.3 nM

Cn1cc(-c2ccc(F)c(C(F)(F)F)c2)nc1C1CCN(c2ncnc3[nH]ncc23)CC1 [LY-2584702]
inhibition at 10 µM (hERG (KCNH2)): 29%

CCc1c(N)ncnc1N1CCC(c2nc(-c3ccc(F)c(C(F)(F)F)c3)cn2CCN2CCC2)CC1
IC50 [6]: 1600 nM
IC50 [1]: 2 nM
IC50 [2]: 49000 nM
IC50 [3]: 4 nM

Cn1cc(-c2ccc(F)c(C(F)(F)F)c2)nc1C1CCN(c2ncnc(N)c2C(N)=O)CC1
IC50 [6]: 1900 nM
IC50 [1]: 3 nM
IC50 [2]: 2300 nM
IC50 [3]: 1600 nM

CN(C)CCn1cc(-c2ccc(F)c(C(F)(F)F)c2)nc1C1CCN(c2ncnc(N)c2C2CC2)CC1
IC50 [6]: 830 nM
IC50 [1]: 3.2 nM
IC50 [3]: 4.8 nM

Cn1cc(-c2ccc(F)c(C(F)(F)F)c2)nc1C1CCN(c2ncnc(N)c2-c2cccc(F)c2)CC1
IC50 [1]: 1.6 nM
IC50 [2]: 400 nM
IC50 [3]: > 1000 nM

NCC(c1ccc(F)c(C(F)(F)F)c1)N1CCN(c2ncnc(N)c2-c2ccc(F)cc2)CC1 (centres undefined)
IC50 [1]: 14 nM
IC50 [2]: 2900 nM
IC50 [3]: > 1000 nM

COc1c(N)ncnc1N1CCC(c2nc(-c3ccc(F)c(C(F)(F)F)c3)cn2C)CC1
IC50 [1]: 2.2 nM
IC50 [2]: 1200 nM
IC50 [3]: 518 nM

C=Cc1c(N)ncnc1N1CCC(c2nc(-c3ccc(F)c(C(F)(F)F)c3)cn2CCN(C)C)CC1
IC50 [6]: 1100 nM
IC50 [1]: 3.5 nM
IC50 [3]: 9.1 nM

CN(C)CCn1cc(-c2ccc(F)c(C(F)(F)F)c2)nc1C1CCN(c2ncnc(N)c2C(N)=O)CC1
IC50 [6]: 4000 nM
IC50 [1]: 3.5 nM
IC50 [2]: 89000 nM
IC50 [3]: 84 nM

Nc1ncnc(N2CCN(C(CN3CCC3)c3ccc(C(F)(F)F)cc3)CC2)c1-c1ccc(F)cc1 (centres undefined)
IC50 [1]: 4.2 nM
IC50 [2]: 1500 nM
IC50 [3]: > 1000 nM

CN(C)CCn1cc(-c2ccc(F)c(C(F)(F)F)c2)nc1C1CCN(c2ncnc(N)c2C#N)CC1
IC50 [6]: 1600 nM
IC50 [1]: 1.8 nM
IC50 [2]: 55000 nM
IC50 [3]: 6.9 nM
